Test results reported in patent US5945325A, “Thermally stable para-nitrobenzyl esterases” (priority 1998, dated 1999).
Like-named read-outs stand apart in the source and are kept apart here.

How the values were obtained:
Test in all cases: Kinetic assays of purified pNB esterase on ester substrates in DMF/PIPES
Type in all cases: biochemical
[1] = target: Bacillus subtilis para-nitrobenzyl esterase variant 2-19E10 (1-1H9 substitutions plus Met 358 Val), SEQ. ID. NO. 6 (Bacillus subtilis, UniProt P37967, form not given/H322R/M358V/Y370F); details: 0.1 M PIPES pH 7.0, 30° C.
Procedure: (§1) FIG. 8a is a plot of variant and wild type pNB esterase reaction kinetics on pNPA in aqueous buffer (0% dimethylformamide). Enzymes were added to a 30° C. reaction solution consisting of 0.1 M PIPES (pH 7.0) and varying concentrations of pNPA.
(§2) FIG. 8b is a plot of variant and wild type pNB esterase reaction kinetics on pNPA in 15% DMF. Enzymes were added to a 30° C. reaction solution consisting of 0.1 M PIPES (pH 7.0), 15% DMF, and varying concentrations of pNPA.
(§3) FIG. 8c is a plot of variant and wild type pNB esterase reaction kinetics on pNPA in 30% DMF. Enzyme were added to a 30° C. reaction solution consisting of 0.1 M PIPES (pH 7.0), 30% DMF, and varying concentrations of pNPA.
(§4) FIG. 9a is a plot of variant wild type pNB esterase kinetics on LCN-pNP in 1% DMF. Enzymes listed were added to a 30° C. reaction solution consisting of 0.1 M PIPES (pH 7.0), 1% DMF, and varying concentrations of LCN-pNP.
(§5) FIG. 9b is a plot of variant and wild type pNB esterase reaction kinetics on LCN-pNP in 15% DMF. Enzymes were added to a 30° C. reaction solution consisting of 0.1 M PIPES (pH 7.0), 15% DMF, and varying concentrations of LCN-pNP.
(§6) FIG. 9c is a plot of variant and wild type pNB esterase reaction kinetics on LCN-pNP in 30% DMF. Enzymes were added to a 30° C. reaction solution consisting of 0.1 M PIPES (pH 7.0), 30% DMF, and varying concentrations of LCN-pNP.
(§7) FIG. 10a is a plot of variant and wild type pNB esterase reaction kinetics on LCN-pNB in 1% DMF. Enzymes were added to a 30° C. reaction solution consisting of 0.1 M PIPES (pH 7.0), 1% DMF, and varying concentrations of LCN-pNB.
(§8) FIG. 10b is a plot of variant and wild type pNB esterase reaction kinetics on LCN-pNB in 15% DMF. Enzyme were added to a 30° C. reaction solution consisting of 0.1 M PIPES (pH 7.0), 15% DMF, and varying concentrations of LCN-pNB.
(§9) Bacteria expressing seven pNB esterases, O-WT (SEQ. ID. NO. 2), 1-1H9, 2-19E10, 3-10C4, 4-38B9, 4-43E7, and 4-54B9, were grown in on cultures, and the enzymes were purified. These purified enzymes were assayed for their ability to hydrolyze the different ester substrates in the presence of various concentrations of DMF. FIGS. 8a, b and c show the specific reaction rates on pNPA as a function of pNPA substrate concentration for this series of evolved variants from the four generations of mutagenesis and screening. […] The wild type enzyme outperforms 1-1H9 in purely aqueous buffer (FIG. 8a). The actual screening, however, was performed in the presence of DMF, and in 15 and 30% DMF, 1-1H9 has higher specific activity towards pNPA than wild type (FIGS. 8b and 8c). Similar trends are seen for the remaining variants assayed on this substrate. […] In 30% DMF, wild type drops still further relative to the pNB esterase variants. Variants 4-38B9 and 4-43E7, presumably by virtue of having been screened in DMF for four rounds of mutagenesis, are the best performers in 30% DMF.
(§10) DMF dramatically increases KM while also decreasing kcat. For the LCN substrates, the mutations accumulated during directed evolution mitigate the increased KM. […] At substrate concentrations […], increased specific activity will result mainly from improvements in kcat. These improvements are the most useful for enzymes intended to be used for transformations in high substrate concentrations.
(§11) Kinetic assays were performed on three substrates: pNPA, LCN-pNP, and p-nitrobenzyl loracarbef nucleus (LCN-pNB). For pNPA and LCN-pNP substrates, final concentrations varying from 0.0625 mM to 16 mM and 0, 15, and 30% DMF in 0.1 M PIPES (pH 7.0) were combined with equal volumes of enzyme samples. These samples were mixed simultaneously in a 96 well plate and monitored with the 96 well plate reader. The absorbance values were recorded, linearly regressed, and then used for calculating kinetic parameters. […]

[2] = target: Bacillus subtilis para-nitrobenzyl esterase variant 4-38B9 (3-10C4 plus Ile 60 Val), SEQ. ID. NO. 10 (Bacillus subtilis, UniProt P37967, form not given/H322R/I60V/L144M/M358V/Y370F); details: 0.1 M PIPES pH 7.0, 30° C.
Procedure: as §1, §2, §3, §4, §5, §6, §7, §8, §9, §10, §11

[3] = target: Bacillus subtilis para-nitrobenzyl esterase variant 4-54B9 (3-10C4 plus Leu 334 Ser and one more substitution), SEQ. ID. NO. 14 (Bacillus subtilis, UniProt P37967, form not given/H322R/K267R/L144M/L334S/M358V/Y370F); details: for kcat (p-nitrophenyl loracarbef nucleus) / Km / kcat (p-nitrobenzyl loracarbef nucleus): 0.1 M PIPES pH 7.0, 30° C.
Procedure: as §1, §2, §3, §4, §5, §6, §7, §8, §9, §10, §11

[4] = target: Bacillus subtilis para-nitrobenzyl esterase (pNB esterase), wild type 0-WT, SEQ. ID. NO. 2 (Bacillus subtilis, UniProt P37967); details: 0.1 M PIPES pH 7.0, 30° C.
Procedure: as §1, §2, §3, §4, §5, §6, §7, §8, §9, §10, §11

[5] = target: Bacillus subtilis para-nitrobenzyl esterase variant 3-10C4 (2-19E10 plus Leu 144 Met), SEQ. ID. NO. 8 (Bacillus subtilis, UniProt P37967, form not given/H322R/L144M/M358V/Y370F); details: 0.1 M PIPES pH 7.0, 30° C.
Procedure: as §1, §2, §3, §4, §5, §6, §7, §8, §9, §10, §11

[6] = target: Bacillus subtilis para-nitrobenzyl esterase variant 4-43E7 (3-10C4 plus Leu 334 Val and one more substitution), SEQ. ID. NO. 12 (Bacillus subtilis, UniProt P37967, form not given/H322R/L144M/L334V/M358V/S94G/Y370F); details: 0.1 M PIPES pH 7.0, 30° C.
Procedure: as §1, §2, §3, §4, §5, §6, §7, §8, §9, §10, §11

[7] = target: T1, Bacillus subtilis para-nitrobenzyl esterase variant 1-1H9 (incl. Tyr 370 Phe), SEQ. ID. NO. 4 (Bacillus subtilis, UniProt P37967, form not given/H322R/Y370F); details: 0% DMF, 0.1 M PIPES pH 7.0, 30° C.
[8] = target: T1, Bacillus subtilis para-nitrobenzyl esterase variant 1-1H9 (incl. Tyr 370 Phe), SEQ. ID. NO. 4; details: 0.1 M PIPES pH 7.0, 30° C.
Procedure: as §1, §2, §3, §4, §5, §6, §7, §8
Bacteria expressing seven pNB esterases, O-WT (SEQ. ID. NO. 2), 1-1H9, 2-19E10, 3-10C4, 4-38B9, 4-43E7, and 4-54B9, were grown in on cultures, and the enzymes were purified. These purified enzymes were assayed for their ability to hydrolyze the different ester substrates in the presence of various concentrations of DMF.
Kinetic assays were performed on three substrates: pNPA, LCN-pNP, and p-nitrobenzyl loracarbef nucleus (LCN-pNB). For pNPA and LCN-pNP substrates, final concentrations varying from 0.0625 mM to 16 mM and 0, 15, and 30% DMF in 0.1 M PIPES (pH 7.0) were combined with equal volumes of enzyme samples. These samples were mixed simultaneously in a 96 well plate and monitored with the 96 well plate reader. The absorbance values were recorded, linearly regressed, and then used for calculating kinetic parameters. For the LCN-pNB substrate, final concentrations varying from 0.0156 mM to 8.0 mM and 0, 15 and 30% DMF in PIPES (pH 7.0) were combined with enzyme samples in a quartz cuvette and were measured in a spectrophotometer at 289 nm. All assays were measured in triplicate.

[9] = 0% DMF, read-out: Km (p-nitrophenyl loracarbef nucleus)
[10] = 15% DMF, read-out: Km (p-nitrophenyl loracarbef nucleus)
[11] = 30% DMF, read-out: Km (p-nitrophenyl loracarbef nucleus)
[12] = 0% DMF, read-out: Km (p-nitrobenzyl loracarbef nucleus)
[13] = 15% DMF, read-out: Km (p-nitrobenzyl loracarbef nucleus)
[14] = 15% DMF, on LCN-pNB, relative to wild type

Chain of Bacillus subtilis para-nitrobenzyl esterase variant 4-43E7 (3-10C4 plus Leu 334 Val and one more substitution), SEQ. ID. NO. 12 (P37967 other isoform, or with tags, fused parts or gaps with the stated changes, form open): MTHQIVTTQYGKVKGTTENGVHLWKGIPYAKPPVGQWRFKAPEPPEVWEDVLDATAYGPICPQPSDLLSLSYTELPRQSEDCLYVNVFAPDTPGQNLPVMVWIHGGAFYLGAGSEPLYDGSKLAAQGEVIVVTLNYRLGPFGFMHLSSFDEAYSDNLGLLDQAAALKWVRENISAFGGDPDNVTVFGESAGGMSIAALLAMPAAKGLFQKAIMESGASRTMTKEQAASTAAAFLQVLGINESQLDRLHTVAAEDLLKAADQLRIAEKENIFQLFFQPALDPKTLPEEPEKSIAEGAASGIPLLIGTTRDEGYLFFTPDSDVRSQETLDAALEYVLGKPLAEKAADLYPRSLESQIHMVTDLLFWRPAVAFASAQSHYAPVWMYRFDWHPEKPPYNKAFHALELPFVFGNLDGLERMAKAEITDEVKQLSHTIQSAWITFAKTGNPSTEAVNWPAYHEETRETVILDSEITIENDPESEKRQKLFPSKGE
Chain of Bacillus subtilis para-nitrobenzyl esterase variant 2-19E10 (1-1H9 substitutions plus Met 358 Val), SEQ. ID. NO. 6 (P37967 whole entry K23L/S59P/K95Q/N150D/S230A/G242S/K246R/S251A/A291S/H322R/V343A/M358V/Y370F/K390E/L463V, form open): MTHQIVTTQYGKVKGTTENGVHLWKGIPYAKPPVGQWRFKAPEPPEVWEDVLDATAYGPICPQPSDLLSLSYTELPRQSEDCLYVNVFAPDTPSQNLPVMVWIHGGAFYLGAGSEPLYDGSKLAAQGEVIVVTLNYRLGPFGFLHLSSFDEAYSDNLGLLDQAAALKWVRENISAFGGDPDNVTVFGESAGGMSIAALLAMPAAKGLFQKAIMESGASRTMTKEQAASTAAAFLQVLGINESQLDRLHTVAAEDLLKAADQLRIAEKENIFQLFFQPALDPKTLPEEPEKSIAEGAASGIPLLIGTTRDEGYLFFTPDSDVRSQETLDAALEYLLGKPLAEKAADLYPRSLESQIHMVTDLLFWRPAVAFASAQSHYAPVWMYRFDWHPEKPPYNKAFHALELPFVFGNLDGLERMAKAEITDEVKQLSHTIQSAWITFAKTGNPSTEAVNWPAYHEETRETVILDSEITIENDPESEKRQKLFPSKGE
Chain of Bacillus subtilis para-nitrobenzyl esterase variant 4-38B9 (3-10C4 plus Ile 60 Val), SEQ. ID. NO. 10 (P37967 other isoform, or with tags, fused parts or gaps with the stated changes, form open): as the sequence (P37967 whole entry K23L/S59P/K95Q/N150D/S230A/G242S/K246R/S251A/A291S/H322R/V343A/M358V/Y370F/K390E/L463V, form open) above, with I60V, L144M counted along it
T1 sequence (P37967 whole entry K23L/S59P/K95Q/N150D/S230A/G242S/K246R/S251A/A291S/H322R/V343A/Y370F/K390E/L463V, form open): as the sequence (P37967 whole entry K23L/S59P/K95Q/N150D/S230A/G242S/K246R/S251A/A291S/H322R/V343A/M358V/Y370F/K390E/L463V, form open) above, with V358M counted along it
Chain of Bacillus subtilis para-nitrobenzyl esterase variant 4-54B9 (3-10C4 plus Leu 334 Ser and one more substitution), SEQ. ID. NO. 14 (P37967 other isoform, or with tags, fused parts or gaps with the stated changes, form open): as the sequence (P37967 whole entry K23L/S59P/K95Q/N150D/S230A/G242S/K246R/S251A/A291S/H322R/V343A/M358V/Y370F/K390E/L463V, form open) above, with L144M, K267R, L334S counted along it
Chain of Bacillus subtilis para-nitrobenzyl esterase variant 3-10C4 (2-19E10 plus Leu 144 Met), SEQ. ID. NO. 8 (P37967 other isoform, or with tags, fused parts or gaps with the stated changes, form open): as the sequence (P37967 whole entry K23L/S59P/K95Q/N150D/S230A/G242S/K246R/S251A/A291S/H322R/V343A/M358V/Y370F/K390E/L463V, form open) above, with L144M counted along it
Chain of Bacillus subtilis para-nitrobenzyl esterase (pNB esterase), wild type 0-WT, SEQ. ID. NO. 2 (P37967 whole entry K23L/S59P/K95Q/N150D/S230A/G242S/K246R/S251A/A291S/V343A/K390E/L463V): as the sequence (P37967 whole entry K23L/S59P/K95Q/N150D/S230A/G242S/K246R/S251A/A291S/H322R/V343A/M358V/Y370F/K390E/L463V, form open) above, with R322H, V358M, F370Y counted along it

NC1C(=O)N2C(C(=O)Oc3ccc([N+](=O)[O-])cc3)=C(Cl)CCC12 (stereo not drawn) [p-nitrophenyl loracarbef nucleus]
kcat (p-nitrophenyl loracarbef nucleus) ([1]; 0% DMF): 0.25
Km [1, 9]: 90 µM
kcat (p-nitrophenyl loracarbef nucleus) ([1]; 15% DMF): 0.12
Km [1, 10]: 1500 µM
kcat (p-nitrophenyl loracarbef nucleus) ([1]; 30% DMF): 0.023
Km [1, 11]: 4670 µM
kcat (p-nitrophenyl loracarbef nucleus) ([2]; 0% DMF): 0.39
Km [2, 9]: 60 µM
kcat (p-nitrophenyl loracarbef nucleus) ([2]; 15% DMF): 0.25
Km [2, 10]: 1410 µM
kcat (p-nitrophenyl loracarbef nucleus) ([2]; 30% DMF): 0.067
Km [2, 11]: 5680 µM
kcat (p-nitrophenyl loracarbef nucleus) ([3]; 0% DMF): 1.44
Km [3, 9]: 120 µM
kcat (p-nitrophenyl loracarbef nucleus) ([3]; 15% DMF): 0.93
Km [3, 10]: 1270 µM
kcat (p-nitrophenyl loracarbef nucleus) ([3]; 30% DMF): 0.141
Km [3, 11]: 2920 µM
kcat (p-nitrophenyl loracarbef nucleus) ([4]; 0% DMF): 0.14
Km [4, 9]: 70 µM
kcat (p-nitrophenyl loracarbef nucleus) ([4]; 15% DMF): 0.10
Km [4, 10]: 2360 µM
kcat (p-nitrophenyl loracarbef nucleus) ([4]; 30% DMF): 0.024
Km [4, 11]: 7550 µM
kcat (p-nitrophenyl loracarbef nucleus) ([5]; 0% DMF): 0.35
Km [5, 9]: 110 µM
kcat (p-nitrophenyl loracarbef nucleus) ([5]; 15% DMF): 0.21
Km [5, 10]: 1770 µM
kcat (p-nitrophenyl loracarbef nucleus) ([5]; 30% DMF): 0.044
Km [5, 11]: 5180 µM
kcat (p-nitrophenyl loracarbef nucleus) ([6]; 0% DMF): 0.67
Km [6, 9]: 80 µM
kcat (p-nitrophenyl loracarbef nucleus) ([6]; 15% DMF): 0.40
Km [6, 10]: 1270 µM
kcat (p-nitrophenyl loracarbef nucleus) ([6]; 30% DMF): 0.094
Km [6, 11]: 5090 µM
kcat (p-nitrophenyl loracarbef nucleus) [7]: 0.08
Km ([7]; read-out: Km (p-nitrophenyl loracarbef nucleus)): 30 µM
kcat (p-nitrophenyl loracarbef nucleus) ([8]; 15% DMF): 0.07
Km [8, 10]: 1840 µM
kcat (p-nitrophenyl loracarbef nucleus) ([8]; 30% DMF): 0.021
Km [8, 11]: 6050 µM

NC1C(=O)N2C(C(=O)OCc3ccc([N+](=O)[O-])cc3)=C(Cl)CCC12 (stereo not drawn) [p-nitrobenzyl loracarbef nucleus]
kcat (p-nitrobenzyl loracarbef nucleus) ([1]; 0% DMF): 4.59
Km [1, 12]: 40 µM
kcat (p-nitrobenzyl loracarbef nucleus) ([1]; 15% DMF): 1.81
Km [1, 13]: 870 µM
kcat (p-nitrobenzyl loracarbef nucleus) ([2]; 0% DMF): 8.51
Km [2, 12]: 40 µM
kcat (p-nitrobenzyl loracarbef nucleus) ([2]; 15% DMF): 1.89
Km [2, 13]: 310 µM
kcat (p-nitrobenzyl loracarbef nucleus) ([3]; 0% DMF): 18.96
Km [3, 12]: 50 µM
kcat (p-nitrobenzyl loracarbef nucleus) ([3]; 15% DMF): 6.84
Km [3, 13]: 460 µM
KM change from wild type to 4-54B9 [3, 14]: decreases by less than a factor of two
kcat increase from wild type to 4-54B9 [3, 14]: more than 9 fold
kcat (p-nitrobenzyl loracarbef nucleus) ([4]; 0% DMF): 1.64
Km [4, 12]: 40 µM
kcat (p-nitrobenzyl loracarbef nucleus) ([4]; 15% DMF): 0.54
Km [4, 13]: 880 µM
kcat (p-nitrobenzyl loracarbef nucleus) ([5]; 0% DMF): 6.53
Km [5, 12]: 70 µM
kcat (p-nitrobenzyl loracarbef nucleus) ([5]; 15% DMF): 1.62
Km [5, 13]: 400 µM
kcat (p-nitrobenzyl loracarbef nucleus) ([6]; 0% DMF): 9.13
Km [6, 12]: 30 µM
kcat (p-nitrobenzyl loracarbef nucleus) ([6]; 15% DMF): 3.02
Km [6, 13]: 370 µM
kcat (p-nitrobenzyl loracarbef nucleus) [7]: 1.94
Km ([7]; read-out: Km (p-nitrobenzyl loracarbef nucleus)): 40 µM
kcat (p-nitrobenzyl loracarbef nucleus) ([8]; 15% DMF): 0.69
Km [8, 13]: 850 µM
